Results taken from patent US8912186B2, “Allosteric protein kinase modulators” (Universitaet des Saarlandes, priority 2008, dated 2014).

Tests used:
Type in all cases: biochemical
PDK1 = target: T1, PDK1 (Homo sapiens, UniProt O15530); assay: cell-free kinase activity assay (ATPgamma[32P], T308tide substrate); details: for AC50 / AC50 PDK1 (μM): concentration of the compound required to activate half maximally; for AC50 / max. activation of PDK1 (fold) / AC50 PDK1 (μM): n.e.: no effect; for max. activation of PDK1 (fold): maximum activation achievable, compared to the basal activity of PDK1
T1 construct: GST
T1 sequence (O15530 1-556): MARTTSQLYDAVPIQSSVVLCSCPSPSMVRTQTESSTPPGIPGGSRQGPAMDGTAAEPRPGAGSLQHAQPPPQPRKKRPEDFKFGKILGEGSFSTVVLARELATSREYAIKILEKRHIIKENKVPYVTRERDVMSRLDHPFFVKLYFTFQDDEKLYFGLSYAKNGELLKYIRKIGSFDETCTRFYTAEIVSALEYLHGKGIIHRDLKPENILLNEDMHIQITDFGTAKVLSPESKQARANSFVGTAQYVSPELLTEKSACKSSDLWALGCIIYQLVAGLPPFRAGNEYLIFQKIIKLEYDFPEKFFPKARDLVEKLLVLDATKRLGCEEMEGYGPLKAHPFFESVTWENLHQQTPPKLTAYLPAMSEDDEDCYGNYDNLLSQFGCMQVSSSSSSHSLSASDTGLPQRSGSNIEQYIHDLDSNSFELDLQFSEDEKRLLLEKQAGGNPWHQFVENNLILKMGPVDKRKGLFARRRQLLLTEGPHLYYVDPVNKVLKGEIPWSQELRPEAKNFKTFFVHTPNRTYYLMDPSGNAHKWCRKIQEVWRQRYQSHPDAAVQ
Source text: Principle of the cell-free kinase activity assay: In general, the activity of the compounds as protein kinase inhibitors or activators may be assayed in vitro (cell free assay is meant here), in vivo or in a cell line. In vitro assays include assays that determine inhibition or activation of either the phosphorylation activity or ATPase activity of the activated protein kinase. Alternate in vitro assays quantitate the ability of the inhibitor to bind to the protein kinase. Compound binding may be measured by radiolabelling the compound prior to binding, isolating the inhibitor or activator/protein kinase complex and determining the amount of radiolabel bound. Alternatively, inhibitor or activator binding may be determined by running a competition experiment where new compounds are incubated with the protein kinase bound to known radioligands. Newer methods comprise fluorescence polarisation assays and surface plasmon resonance dependent techniques. […] The activity and modulation of activity is measured using a standard ATPgamma[^32P] assay as described earlier. […] The concentration of T308tide is 1 mM and the amount of PDK1 used is 200 ng. Reactions are carried out at room temperature. Reaction is started by addition of ATP-Mg mix and stopped with phosphoric acid after 30 min. Stopped reactions were spotted on to phosphocellulose paper (P81, Whatman) and washed. After drying, the radioactivity associated to the band was quantified.

SGK = target: T2, SGK (Homo sapiens, UniProt O00141); assay: cell-free kinase activity assay; details: DMSO control set 100%
T2 sequence (O00141 1-431): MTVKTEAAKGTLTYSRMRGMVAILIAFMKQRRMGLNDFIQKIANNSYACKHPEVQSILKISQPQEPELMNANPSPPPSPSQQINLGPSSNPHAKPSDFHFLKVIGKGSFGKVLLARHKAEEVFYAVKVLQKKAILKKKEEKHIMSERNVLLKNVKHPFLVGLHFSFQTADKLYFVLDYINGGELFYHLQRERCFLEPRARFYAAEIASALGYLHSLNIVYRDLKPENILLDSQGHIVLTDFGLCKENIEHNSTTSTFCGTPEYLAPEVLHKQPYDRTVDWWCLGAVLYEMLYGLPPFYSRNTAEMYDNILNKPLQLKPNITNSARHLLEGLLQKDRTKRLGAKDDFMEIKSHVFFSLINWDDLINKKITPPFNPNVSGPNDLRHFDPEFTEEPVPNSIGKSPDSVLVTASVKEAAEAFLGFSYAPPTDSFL

PRK2 = PRK2 (Homo sapiens, UniProt Q16513); assay: cell-free kinase activity assay; details: DMSO control set 100%
S6K = S6K (Homo sapiens, UniProt P23443); assay: cell-free kinase activity assay; details: DMSO control set 100%
PKBβ = PKBβ (Homo sapiens, UniProt P31751); assay: cell-free kinase activity assay; details: DMSO control set 100%
PKA = PKA (Homo sapiens, UniProt P17612); assay: cell-free kinase activity assay; details: DMSO control set 100%

Sequence of PKBβ (P31751 whole entry, species assumed): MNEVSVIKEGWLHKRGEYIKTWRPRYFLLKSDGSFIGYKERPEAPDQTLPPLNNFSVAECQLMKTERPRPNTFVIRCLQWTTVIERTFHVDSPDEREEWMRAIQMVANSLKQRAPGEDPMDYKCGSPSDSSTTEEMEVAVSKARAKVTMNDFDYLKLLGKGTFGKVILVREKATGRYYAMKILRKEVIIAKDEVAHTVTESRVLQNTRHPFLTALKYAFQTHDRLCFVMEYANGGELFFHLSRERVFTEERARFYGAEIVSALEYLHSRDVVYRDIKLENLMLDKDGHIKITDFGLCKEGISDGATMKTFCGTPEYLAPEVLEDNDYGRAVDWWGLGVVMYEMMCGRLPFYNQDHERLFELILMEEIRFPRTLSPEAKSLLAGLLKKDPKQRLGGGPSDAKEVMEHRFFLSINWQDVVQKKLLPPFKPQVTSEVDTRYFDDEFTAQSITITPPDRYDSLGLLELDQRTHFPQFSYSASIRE
Sequence of PRK2 (Q16513 whole entry, species assumed): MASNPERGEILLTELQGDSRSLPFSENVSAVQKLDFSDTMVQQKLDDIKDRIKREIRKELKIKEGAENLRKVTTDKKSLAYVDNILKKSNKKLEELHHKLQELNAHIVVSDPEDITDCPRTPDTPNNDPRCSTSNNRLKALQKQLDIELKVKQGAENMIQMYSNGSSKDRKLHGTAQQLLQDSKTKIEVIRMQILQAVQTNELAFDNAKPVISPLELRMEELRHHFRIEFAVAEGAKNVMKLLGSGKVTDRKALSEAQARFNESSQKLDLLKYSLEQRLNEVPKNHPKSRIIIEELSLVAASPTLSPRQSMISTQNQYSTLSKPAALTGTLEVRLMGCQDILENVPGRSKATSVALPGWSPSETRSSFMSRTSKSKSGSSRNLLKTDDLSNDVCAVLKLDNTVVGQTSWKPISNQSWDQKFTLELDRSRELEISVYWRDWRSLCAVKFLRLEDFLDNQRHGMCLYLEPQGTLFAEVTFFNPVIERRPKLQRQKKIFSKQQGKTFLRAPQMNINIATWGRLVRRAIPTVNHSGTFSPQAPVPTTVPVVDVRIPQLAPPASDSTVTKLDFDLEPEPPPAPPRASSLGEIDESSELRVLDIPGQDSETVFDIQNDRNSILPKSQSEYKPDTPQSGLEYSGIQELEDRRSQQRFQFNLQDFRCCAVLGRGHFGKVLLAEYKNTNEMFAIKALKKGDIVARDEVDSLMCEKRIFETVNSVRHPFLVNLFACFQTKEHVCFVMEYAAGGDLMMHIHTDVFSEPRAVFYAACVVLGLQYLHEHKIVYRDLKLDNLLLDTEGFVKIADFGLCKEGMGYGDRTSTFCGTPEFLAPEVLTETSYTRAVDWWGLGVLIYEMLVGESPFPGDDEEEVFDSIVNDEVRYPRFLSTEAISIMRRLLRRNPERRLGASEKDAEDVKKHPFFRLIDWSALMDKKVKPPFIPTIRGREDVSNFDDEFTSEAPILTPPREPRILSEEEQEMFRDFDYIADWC
Sequence of S6K (P23443 whole entry): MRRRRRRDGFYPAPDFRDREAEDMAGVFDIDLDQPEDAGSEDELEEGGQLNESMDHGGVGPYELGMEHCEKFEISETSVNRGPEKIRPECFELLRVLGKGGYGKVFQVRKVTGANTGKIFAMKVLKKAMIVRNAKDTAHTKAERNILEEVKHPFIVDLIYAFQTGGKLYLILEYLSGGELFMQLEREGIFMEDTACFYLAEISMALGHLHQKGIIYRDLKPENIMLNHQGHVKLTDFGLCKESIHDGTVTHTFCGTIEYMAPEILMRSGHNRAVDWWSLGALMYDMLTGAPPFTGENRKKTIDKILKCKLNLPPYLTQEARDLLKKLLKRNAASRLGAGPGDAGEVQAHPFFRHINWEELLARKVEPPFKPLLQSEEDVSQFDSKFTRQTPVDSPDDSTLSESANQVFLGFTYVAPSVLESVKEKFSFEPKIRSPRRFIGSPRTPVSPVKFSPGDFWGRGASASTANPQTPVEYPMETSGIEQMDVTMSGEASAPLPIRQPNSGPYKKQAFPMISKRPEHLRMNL

Structure (SMILES) | AC50 (PDK1) | max. activation of PDK1 (fold) (PDK1) | other results
O=C(O)C=C(c1ccccc1)c1cc2cc(Cl)ccc2o1 (mixture of isomers) [PS 101, (E/Z)-3-(5-Chloro-2-benzofuranyl)-3-phenylacrylic acid] | 31.6 µM | 3.2 fold | –
Cc1ccc2oc(C(=CC(=O)O)c3ccccc3)cc2c1 (mixture of isomers) [PS 103, (E/Z)-3-(5-Methyl-2-benzofuranyl)-3-phenylacrylic acid] | 41.3 µM | 3.1 fold | –
O=C(O)/C=C(\COc1ccc(Cl)cc1)c1ccccc1 [PS 95, (Z)-4-(4-Chlorophenoxy)-3-phenylbut-2-enoic acid] | > 60 µM | 2.7 fold | –
O=C(O)/C=C(/COc1ccc(Cl)cc1)c1ccccc1 [PS 97, (E)-4-(4-Chlorophenoxy)-3-phenylbut-2-enoic acid] | 22.8 µM | 3.0 fold | –
O=C(O)/C=C(\c1ccccc1)c1cc2cc(Cl)ccc2s1 [PS 119, (E)-3-(5-Chloro-2-benzothiophenyl)-3-phenylacrylic acid] | 13.2 µM | 3.1 fold | –
Cc1ccc2oc(C(CC(=O)O)c3ccccc3)cc2c1 (centres unmarked) [PS 120, 3-(5-Methyl-2-benzofuranyl)-3-phenylpropanoic acid] | 29.1 µM | 2.7 fold | –
O=C(O)CC(c1ccccc1)c1cc2cc(Cl)ccc2o1 (centres unmarked) [PS 124, 3-(5-Chloro-2-benzofuranyl)-3-phenylpropanoic acid] | 19 µM | 2.9 fold | –
CCc1ccc(CC/C(=C\C(=O)O)c2ccccc2)cc1 [PS 129, (E)-5-(4-Ethylphenyl)-3-phenylpent-2-enoic acid] | > 100 µM | 1.5 fold | –
CCc1ccc(CC/C(=C/C(=O)O)c2ccccc2)cc1 [PS 130, (Z)-5-(4-Ethylphenyl)-3-phenylpent-2-enoic acid] | > 30 µM | 1.4 fold | –
O=C(O)/C=C(\CCc1ccc(C(F)(F)F)cc1)c1ccccc1 [PS 140, (E)-3-Phenyl-5-[4-(trifluoromethyl)phenyl]pent-2-enoic acid] | – | n.e. | AC50 PDK1 (μM) (PDK1): n.e.
O=C(O)/C=C(\CCc1c[nH]c2ccccc12)c1ccccc1 [PS 158, (E)-5-(1H-Indol-3-yl)-3-phenylpent-2-enoic acid] | 34.6 µM | 2.9 fold | –
O=C(O)/C=C(/CCc1c[nH]c2ccccc12)c1ccccc1 [PS 159, (Z)-5-(1H-Indol-3-yl)-3-phenylpent-2-enoic acid] | 9.3 µM | 3.7 fold | –
O=C(O)CC(Cc1nc2c(Cl)cc(Cl)cc2[nH]1)c1ccc(Cl)cc1 (centres unmarked) [PS 171, 4-(5,7-Dichloro-2-benzimidazolyl)-3-(4-chlorophenyl)butanoic acid] | – | – | activity at 200 µM (PDK1; 200 μM compound, DMSO control set 100%, read-out: percent of catalytic activity of the Kinase in the presence of compound as compared to the solvent control (DMSO): PDK1): ~200%; percent of catalytic activity of the Kinase in the presence of compound as compared to the solvent control (DMSO): SGK (SGK; 50 μM compound): no effect; remaining activity at 200 µM (SGK; 200 μM compound, read-out: percent of catalytic activity of the Kinase in the presence of compound as compared to the solvent control (DMSO): SGK): ~70%; percent of catalytic activity of the Kinase in the presence of compound as compared to the solvent control (DMSO): PRK2 (PRK2; 50 μM compound): no effect; percent of catalytic activity of the Kinase in the presence of compound as compared to the solvent control (DMSO): PRK2 (PRK2; 200 μM compound): no effect; percent of catalytic activity of the Kinase in the presence of compound as compared to the solvent control (DMSO): S6K (S6K; 50 μM compound): weak inhib.; remaining activity at 200 µM (S6K; 200 μM compound, read-out: percent of catalytic activity of the Kinase in the presence of compound as compared to the solvent control (DMSO): S6K): ~50%; percent of catalytic activity of the Kinase in the presence of compound as compared to the solvent control (DMSO): PKBβ (PKBβ; 50 μM compound): no effect; remaining activity at 200 µM (PKBβ; 200 μM compound, read-out: percent of catalytic activity of the Kinase in the presence of compound as compared to the solvent control (DMSO): PKBβ): ~70%; percent of catalytic activity of the Kinase in the presence of compound as compared to the solvent control (DMSO): PKA (PKA; 50 μM compound): no effect; remaining activity at 200 µM (PKA; 200 μM compound, read-out: percent of catalytic activity of the Kinase in the presence of compound as compared to the solvent control (DMSO): PKA): 80 to 90%

More lines, main results first:

AC50 (PDK1) | max. activation of PDK1 (fold) (PDK1) | Structure (SMILES) | other results
> 100 µM | 2 fold | O=C(O)/C=C(\CCc1cccc(Cl)c1)c1ccccc1 [PS 88, (E)-5-(3-Chlorophenyl)-3-phenylpent-2-enoic acid] | –
> 100 µM | 2 fold | O=C(O)/C=C(\CCc1ccc(Cl)c(Cl)c1)c1ccccc1 [PS 131, (E)-5-(3,4-Dichlorophenyl)-3-phenylpent-2-enoic acid] | –
– | n.e. | O=C(O)/C=C(\CCc1ccc(Cl)cc1Cl)c1ccccc1 [PS 135, (E)-5-(2,4-Dichlorophenyl)-3-phenylpent-2-enoic acid] | AC50 PDK1 (μM) (PDK1): n.e.
> 100 µM | 1.3 fold | O=C(O)/C=C(\CCc1ccc(F)cc1)c1ccccc1 [PS 136, (E)-5-(4-Fluorophenyl)-3-phenylpent-2-enoic acid] | –
> 100 µM | 2 fold | O=C(O)/C=C(\CCc1ccc(Br)cc1)c1ccccc1 [PS 137, (E)-5-(4-Bromophenyl)-3-phenylpent-2-enoic acid] | –
27.1 µM | 3.1 fold | O=C(O)/C=C(\CCc1ccc2ccccc2c1)c1ccccc1 [PS 138, (E)-5-(2-Naphthalenyl)-3-phenylpent-2-enoic acid] | –
41 µM | 3.3 fold | O=C(O)/C=C(/CCc1ccc(F)cc1)c1ccccc1 [PS-T3, (Z)-5-(4-Fluorophenyl)-3-phenylpent-2-enoic acid] | –
4 µM | more than 4 fold | O=C(O)/C=C(/CCc1ccc2ccccc2c1)c1ccccc1 [PS-T4, (Z)-5-(2-Naphthalenyl)-3-phenylpent-2-enoic acid] | max. activation of PDK1 (fold) (PDK1; listed as T4): 4.2 fold
8 µM | 3.4 fold | O=C(O)/C=C(/CCc1ccc(Cl)c(Cl)c1)c1ccccc1 [PS-T7, (Z)-5-(3,4-Dichlorophenyl)-3-phenylpent-2-enoic acid] | –
9.4 µM | 2.2 fold | O=C(O)/C=C(/CCc1ccc(Cl)cc1Cl)c1ccccc1 [PS-T9, (Z)-5-(2,4-Dichlorophenyl)-3-phenylpent-2-enoic acid] | –
